The target in assay [1] is T1, recombinant human Wee1A kinase (Homo sapiens, UniProt P30291).
T1 construct: full length Wee1 kinase was expressed by baculovirus in insect cells; purchased Invitrogen PV3817; host or cells: insect cells (baculovirus)
Nature of the assay: Wee1A kinase binding assay (LanthaScreen Eu time-resolved FRET). The conditions noted are these: 30 nM tracer 178, 5 nM Wee1A kinase, 2 nM Eu-labeled antibody; 60 minutes at room temperature; read-out: Wee1A kinase Binding IC50. Summed up: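 Full-length, baculovirus-expressed GST-tagged Wee1A (5 nM) was mixed with 2 nM Eu-anti-GST antibody, 30 nM kinase tracer 178 and compound (1% DMSO). Buffer was 50 mM HEPES pH 7.5, 10 mM MgCl2, 1 mM EGTA, 0.01% Brij-35, incubated 60 min at room temperature. TR-FRET 665/615 nm emission ratios from duplicates were curve-fitted.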
In general terms: Time-resolved FRET reads energy transfer from a long-lived donor to a nearby acceptor.

Assay [2] concerns the target T2, Myt1 kinase (recombinant PMYT-1) (Homo sapiens, UniProt Q99640).
T2 construct: full length PMYT-1 was expressed by baculovirus in insect cells; purchased Invitrogen A30984; host or cells: insect cells (baculovirus)
T2 sequence (Q99640 1-499): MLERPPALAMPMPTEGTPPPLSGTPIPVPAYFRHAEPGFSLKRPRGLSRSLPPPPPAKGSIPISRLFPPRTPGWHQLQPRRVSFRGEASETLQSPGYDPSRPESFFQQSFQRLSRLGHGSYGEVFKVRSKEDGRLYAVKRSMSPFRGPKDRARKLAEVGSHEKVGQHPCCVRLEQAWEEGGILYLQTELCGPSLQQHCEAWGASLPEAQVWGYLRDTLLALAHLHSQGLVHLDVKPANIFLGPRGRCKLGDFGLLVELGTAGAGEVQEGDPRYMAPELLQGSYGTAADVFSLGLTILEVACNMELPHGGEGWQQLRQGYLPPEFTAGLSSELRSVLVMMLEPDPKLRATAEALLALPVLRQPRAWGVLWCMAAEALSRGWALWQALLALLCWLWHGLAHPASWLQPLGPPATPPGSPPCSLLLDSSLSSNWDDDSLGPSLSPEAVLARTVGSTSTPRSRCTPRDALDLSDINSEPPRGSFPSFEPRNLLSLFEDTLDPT
Nature of the assay: Myt1 kinase binding assay (LanthaScreen Eu Kinase Binding Assay). As to conditions: 3 nM tracer 178, 2.5 nM PMYT-1, 1 nM Eu-labeled antibody; read-out: Myt1 kinase Binding IC50. Summed up: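 The binding affinity of compounds for Myt1 kinase was measured with a LanthaScreen Europium (Eu) Kinase Binding Assay, a time-resolved FRET format in which test compounds compete against a labeled kinase tracer, and the results were expressed as IC50 values describing compound binding to Myt1.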

Assay [3] addresses T3, Wee1A kinase (CDK1 Tyr15 phosphorylation in ACHN renal cell carcinoma cells) (Homo sapiens, UniProt P30291).
T3 construct: pCDK1 Tyr15 immunofluorescence read-out
Nature of the assay: High-content imaging of pCdk1 Y15, Wee1A kinase target engagement in ACHN cells. The assay is classed as cell-based. As to conditions: 4 h treatment, nuclear positivity for pCdk1 Y15 vs DMSO control, read-out: CDK1 Tyr15 Phosphorylation EC50. Summed up: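 ACHN cells exposed to compound for 4 h over 7–5,000 nM or 0.3–200 nM, then fixed and immunostained for pCDK1 Y15 with DAPI nuclear counterstain. The percentage of pCdk1 Y15 nucleus-positive cells relative to DMSO control was imaged per well; EC50 from dose-response curves.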

Molecules are shown by their SMILES.

T1 sequence (P30291 whole entry): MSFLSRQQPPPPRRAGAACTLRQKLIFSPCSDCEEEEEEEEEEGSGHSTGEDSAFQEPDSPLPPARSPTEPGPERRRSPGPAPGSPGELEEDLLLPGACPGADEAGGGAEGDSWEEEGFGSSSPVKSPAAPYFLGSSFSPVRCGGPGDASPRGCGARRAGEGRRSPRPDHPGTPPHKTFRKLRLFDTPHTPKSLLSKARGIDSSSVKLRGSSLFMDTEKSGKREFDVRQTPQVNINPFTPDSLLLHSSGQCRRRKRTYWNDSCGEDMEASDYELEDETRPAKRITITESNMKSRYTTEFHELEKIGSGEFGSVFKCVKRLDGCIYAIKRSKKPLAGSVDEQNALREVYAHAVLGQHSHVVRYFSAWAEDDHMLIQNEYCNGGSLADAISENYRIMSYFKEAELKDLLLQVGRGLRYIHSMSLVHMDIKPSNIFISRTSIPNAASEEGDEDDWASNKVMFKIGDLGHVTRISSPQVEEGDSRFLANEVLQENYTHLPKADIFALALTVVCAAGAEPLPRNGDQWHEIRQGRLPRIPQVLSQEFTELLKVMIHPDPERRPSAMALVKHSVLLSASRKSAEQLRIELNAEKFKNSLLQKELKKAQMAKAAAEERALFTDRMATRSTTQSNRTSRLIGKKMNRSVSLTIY
T3 sequence (P30291 whole entry): as above

The term IC50 denotes the concentration that gives 50% inhibition. For orientation: EC50 means the concentration that produces a half-maximal response. On to `C=CCn1c(=O)c2cnc(Nc3cncc(OC)c3)nc2n1-c1cccc(OC2CCN(C)CC2)n1` [Compound 342, 6-[(5-methoxypyridin-3-yl)amino]-1-{6-[(1-methylpiperidin-4-yl)oxy]pyridin-2-yl}-2-(prop-2-en-1-yl)-1H,2H,3H-pyrazolo[3,4-d]pyrimidin-3-one], for which the half-maximal inhibitory concentration (IC50) in assay [1] is under 10 nM; in assay [2], 20 to 100 nM. For the same compound, the concentration giving a half-maximal response (EC50) in assay [3] was 100 to 500 nM.
Turning to `C=CCn1c(=O)c2cnc(Nc3ccc4c(cnn4C)c3)nc2n1-c1cccc(OC2CCN(C)C(C)(C)C2)n1` (stereo not drawn) [Compound 343, 2-allyl-6-((1-methyl-1H-indazol-5-yl)amino)-1-(6-((1,2,2-trimethylpiperidin-4-yl)oxy)pyridin-2-yl)-1,2-dihydro-3H-pyrazolo[3,4-d]pyrimidin-3-one], the IC50 in assay [1] is under 10 nM; in assay [2], 100 to 500 nM. Besides, in assay [3], the half-maximal effective concentration (EC50) lay in the range of 100 to 500 nM.
For `C=CCn1c(=O)c2cnc(Nc3ccc4[nH]nc(C)c4c3)nc2n1-c1cccc(OC2CCNCC2)n1` [Compound 345, 2-allyl-6-((3-methyl-1H-indazol-5-yl)amino)-1-(6-(piperidin-4-yloxy)pyridin-2-yl)-1,2-dihydro-3H-pyrazolo[3,4-d]pyrimidin-3-one], the values for the half-inhibitory concentration (IC50) in assay [1] and in assay [2] were under 10 nM and 20 to 100 nM, respectively. Further, in assay [3], the concentration giving a half-maximal response (EC50) was 500 to 1000 nM.
For `C=CCn1c(=O)c2cnc(Nc3ccc4c(c3)c(C)nn4C)nc2n1-c1cccc(OC2CCNCC2)n1` [Compound 347, 2-allyl-6-((1,3-dimethyl-1H-indazol-5-yl)amino)-1-(6-(piperidin-4-yloxy)pyridin-2-yl)-1,2-dihydro-3H-pyrazolo[3,4-d]pyrimidin-3-one], the figures for the IC50 in assay [1] and in assay [2] were under 10 nM and 20 to 100 nM, respectively. Moreover, in assay [3], the EC50 is under 100 nM.
Consider `C=CCn1c(=O)c2cnc(Nc3ccc(F)cc3)nc2n1-c1ccnc(OC2CCN(C)CC2)n1` [Compound 348, 2-allyl-6-((4-fluorophenyl)amino)-1-(2-((1-methylpiperidin-4-yl)oxy)pyrimidin-4-yl)-1,2-dihydro-3H-pyrazolo[3,4-d]pyrimidin-3-one], for which the IC50 in assay [1] is under 10 nM; in assay [2], 20 to 100 nM. In addition, the EC50 in assay [3] is under 100 nM.
Turning to `C=CCn1c(=O)c2cnc(Nc3ccc4c(cnn4C)c3)nc2n1-c1ccnc(OC2CCNCC2)n1` [Compound 350, 2-allyl-6-((1-methyl-1H-indazol-5-yl)amino)-1-(2-(piperidin-4-yloxy)pyrimidin-4-yl)-1,2-dihydro-3H-pyrazolo[3,4-d]pyrimidin-3-one], the half-maximal inhibitory concentration (IC50) in assay [1] is under 10 nM; in assay [2] it was 100 to 500 nM. Besides, the EC50 in assay [3] lay in the range of 100 to 500 nM.
Regarding `CCn1c(=O)c2cnc(Nc3cccc(-c4cccnc4)c3)nc2n1-c1cccc(OC2CCN(C)CC2)n1` [Compound 352, 2-ethyl-1-[6-(1-methyl-4-piperidyloxy)-2-pyridyl]-6-[m-(3-pyridyl)phenylamino]-1,2-dihydro-3H-1,2,5,7-tetraazainden-3-one], the IC50 in assay [1] is under 10 nM; in assay [2], 20 to 100 nM. Besides, the EC50 in assay [3] was under 100 nM.
On to `CCn1c(=O)c2cnc(Nc3ccc4c(ccn4C)c3)nc2n1-c1cccc(OC2CCNCC2)n1` [Compound 353, 2-ethyl-6-((1-methyl-1H-indol-5-yl)amino)-1-(6-(piperidin-4-yloxy)pyridin-2-yl)-1,2-dihydro-3H-pyrazolo[3,4-d]pyrimidin-3-one], for which the concentration for half-maximal inhibition (IC50) in assay [1] is under 10 nM; in assay [2], 20 to 100 nM. Also, in assay [3], the half-maximal effective concentration (EC50) was under 100 nM.
Regarding `C=CCn1c(=O)c2cnc(Nc3ccc4c(cnn4CC(C)C)c3)nc2n1-c1cccc(OC2CCNCC2)n1` [Compound 356, 2-allyl-6-((1-isobutyl-1H-indazol-5-yl)amino)-1-(6-(piperidin-4-yloxy)pyridin-2-yl)-1,2-dihydro-3H-pyrazolo[3,4-d]pyrimidin-3-one], the IC50 in assay [1] is under 10 nM; in assay [2], under 20 nM. Further, in assay [3], the EC50 is under 100 nM.
`CCn1c(=S)c2cnc(Nc3ccc4c(cnn4C)c3)nc2n1-c1cccc(OC2CCN(C)CC2)n1` [Compound 362, 2-ethyl-6-[(1-methyl-1H-indazol-5-yl)amino]-1-{6-[(1-methylpiperidin-4-yl)oxy]pyridin-2-yl}-1H,2H,3H-pyrazolo[3,4-d]pyrimidine-3-thione]: the IC50 in assay [1] was under 10 nM; in assay [2], 100 to 500 nM. Further, the EC50 in assay [3] is 100 to 500 nM.
Turning to `C=CCn1c(=O)c2cnc(Nc3cccc(-n4cccn4)c3)nc2n1-c1cccc(OC2CCNCC2)n1` [Compound 363, 2-allyl-1-[6-(4-piperidyloxy)-2-pyridyl]-6-[m-(1-pyrazolyl)phenylamino]-1,2-dihydro-3H-1,2,5,7-tetraazainden-3-one], the results for the concentration for half-maximal inhibition (IC50) in assay [1] and in assay [2] were under 10 nM and 20 to 100 nM, respectively. In addition, the EC50 in assay [3] is 100 to 500 nM.
Take `C=CCn1c(=O)c2cnc(Nc3cccc(-n4cccn4)c3)nc2n1-c1cccc(OC2CCN(C)CC2)n1` [Compound 364, 2-allyl-1-[6-(1-methyl-4-piperidyloxy)-2-pyridyl]-6-[m-(1-pyrazolyl)phenylamino]-1,2-dihydro-3H-1,2,5,7-tetraazainden-3-one]: the IC50 in assay [1] was under 10 nM; in assay [2] it was 20 to 100 nM. The half-maximal effective concentration (EC50) in assay [3] is under 100 nM.
In the case of `C=CCn1c(=O)c2cnc(Nc3cccc(-n4ccnc4)c3)nc2n1-c1cccc(OC2CCN(C)CC2)n1` [Compound 365, 2-allyl-6-[m-(1-imidazolyl)phenylamino]-1-[6-(1-methyl-4-piperidyloxy)-2-pyridyl]-1,2-dihydro-3H-1,2,5,7-tetraazainden-3-one], the IC50 in assay [1] is under 10 nM; in assay [2], 20 to 100 nM. The EC50 in assay [3] was under 100 nM.
For `CCn1c(=O)c2cnc(Nc3cccc(-c4cncnc4)c3)nc2n1-c1cccc(OC2CCNCC2)n1` [Compound 366, 2-ethyl-1-[6-(4-piperidyloxy)-2-pyridyl]-6-[m-(5-pyrimidinyl)phenylamino]-1,2-dihydro-3H-1,2,5,7-tetraazainden-3-one], in that order: under 10 nM, 100 to 500 nM and 500 to 1000 nM.
On to `CCn1c(=O)c2cnc(Nc3cccc(-c4cncnc4)c3)nc2n1-c1cccc(OC2CCN(C)CC2)n1` [Compound 367, 2-ethyl-1-[6-(1-methyl-4-piperidyloxy)-2-pyridyl]-6-[m-(5-pyrimidinyl)phenylamino]-1,2-dihydro-3H-1,2,5,7-tetraazainden-3-one], for which the half-maximal inhibitory concentration (IC50) was under 10 nM in assay [1] and 100 to 500 nM in assay [2]. The EC50 in assay [3] is under 100 nM.
`C=CCn1c(=O)c2cnc(Nc3cccc(-c4cccnc4)c3)nc2n1-c1cccc(OC2CCN(C)CC2)n1` [Compound 368, 2-allyl-1-[6-(1-methyl-4-piperidyloxy)-2-pyridyl]-6-[m-(3-pyridyl)phenylamino]-1,2-dihydro-3H-1,2,5,7-tetraazainden-3-one]: the half-maximal inhibitory concentration (IC50) in assay [1] is under 10 nM; in assay [2], 20 to 100 nM. For the same compound, the concentration for a half-maximal effect (EC50) in assay [3] is 100 to 500 nM.
With `C=CCn1c(=O)c2cnc(Nc3ccc(OCC(F)(F)F)cc3)nc2n1-c1ccnc(OC2CCN(C3COC3)CC2)n1` [Compound 371, 2-allyl-1-(2-((1-(oxetan-3-yl)piperidin-4-yl)oxy)pyrimidin-4-yl)-6-((4-(2,2,2-trifluoroethoxy)phenyl)amino)-1,2-dihydro-3H-pyrazolo[3,4-d]pyrimidin-3-one], the values for the IC50 in assay [1] and in assay [2] were under 10 nM and 100 to 500 nM, respectively. For the same compound, the EC50 in assay [3] is under 100 nM.
Regarding `C=CCn1c(=O)c2cnc(Nc3ccc4c(cnn4C(C)C)c3)nc2n1-c1ccnc(OC2CCNCC2)n1` [Compound 375, 2-allyl-6-((1-isopropyl-1H-indazol-5-yl)amino)-1-(2-(piperidin-4-yloxy)pyrimidin-4-yl)-1,2-dihydro-3H-pyrazolo[3,4-d]pyrimidin-3-one], the IC50 in assay [1] was under 10 nM; in assay [2], 20 to 100 nM. Moreover, in assay [3], the EC50 is under 100 nM.
For `C=CCn1c(=O)c2cnc(Nc3ccc4c(cnn4C4CC4)c3)nc2n1-c1cccc(OC2CCNCC2)n1` [Compound 376, 2-allyl-6-((1-cyclopropyl-1H-indazol-5-yl)amino)-1-(6-(piperidin-4-yloxy)pyridin-2-yl)-1,2-dihydro-3H-pyrazolo[3,4-d]pyrimidin-3-one], in that order: under 10 nM, under 20 nM and under 100 nM.

These data come from US20260364080A1, “PYRAZOLO-PYRIMIDINONE COMPOUNDS FOR USE IN METHODS OF INHIBITING WEE1 A KINASE” (Acrivon Therapeutics, Inc., priority 2023, published 2026).
